Numbered stars: 1 amine (or outer) side, 2 acyl side, 3 side chain; on linkers, the order of the positions; unused ones are H or OH. Bridge positions count the residues as written; N and C are the ends. Square brackets hold non-standard residues; d marks the D form. Peptide text beside a SMILES is read from it. hPhe = N[C@@H](CCc1ccccc1)C(=O)O; NMeN = CN[C@@H](CC(N)=O)C(=O)O; CO = O=C([*:1])[*:2]

One experiment concerns trypsin. Kind of experiment: Trypsin inhibition assay. The note with it: class symbol in IC50 column. In kind it is biochemical. Here is the method:
The tests were performed in triplicates.
Table S2. Conditions and solvents used in the enzyme inhibition assays.
Enzyme Substrate Inhibitor bation time (min) ngth
Carboxypeptidase-A N-(4-methoxy-phenyl- Carboxypeptidase
(Sigma-Aldrich; azoformyl)-Phe-OH inhibitor from 5 min;
1.6 µM Montclair, CA, USA) (Sigma-Aldrich)
Elastase N-succinyl-Ala-Ala-Ala-p- Elastatinal
(Sigma-Aldrich) nitroanilide (Sigma-Aldrich) 20 min;
Thrombin N-p-tosyl-Gly-Pro-Lys-p- AEBSF
(Sigma-Aldrich) nitroanilide acetate salt (Sigma-Aldrich) 10 min;
Trypsin N-α-benzoyl-DL-arginine- Aprotinine
(Sigma-Aldrich) p-nitroanilide (Sigma-Aldrich) 15 min;
Figure S2. MRM chromatograms of anabaenopeptins produced by N. edaphicum CCNP1411.

For another experiment, the system named is CPA. Also on record: method as in PMID 11000037, PMID 10340607, PMID 27641470. The note with it: ref [9],[23],[87]; read-out: IC50 against CPA; cited from earlier work.

With `CC[C@H](C)[C@@H]1NC(=O)[C@H](NC(=O)N[C@H](C(=O)O)C(C)C)CCCCNC(=O)[C@H](Cc2ccccc2)NC(=O)[C@H](CC(N)=O)NC(=O)[C@H](CCc2ccccc2)NC1=O` [AP806Ne, [Lys–Leu*–Hph–Asn–Phe]CO–Val] ({Val-CO}-[dK]I[hPhe]NF; lactam 1-C), the “Enzyme Inhibition TRY (activity class)” value in the experiment on trypsin was “– (not active (inhibition below 10%))”.

Turning to `CC[C@H](C)[C@H](NC(=O)N[C@@H]1CCCCNC(=O)[C@H](Cc2ccccc2)NC(=O)[C@H](CC(N)=O)N(C)C(=O)[C@H](CCc2ccccc2)NC(=O)[C@H]([C@@H](C)CC)NC1=O)C(=O)O` [AP SA6, [Lys–Leu*–Hph–MeAsn–Phe]CO–Leu*] ({Ile-CO}-[dK]I[hPhe][NMeN]F; lactam 1-C), the “Enzyme Inhibition TRY (activity class)” value in the experiment with trypsin is on record as “– (not active (inhibition below 10%))”. In the case of Tyr+CO[Lys+Ile+Hty+MeHty+Ile] [AP G], the IC50 in the experiment on CPA is 2 nM.

The record behind these values is article PMC9564503, “Anabaenopeptins from Nostoc edaphicum CCNP1411” (International Journal of Environmental Research and Public …, 2022).
